Several values for one entry are separate records, joined by “and”; a condition that tells them apart may be missing. Identical values can stand only once.
What was measured:
hSGLT2 F453A = target: T1, hSGLT2 F453A (Homo sapiens, UniProt P31639, F453A); assay: SGLT2 inhibitor-binding assay (AS-MS), crude membrane, F453A mutant; parameters: expressed in transfected cells; host or cells: Expi293 cells, crude membrane fraction; conditions: 30 nM canagliflozin, replicates
T1 sequence (P31639 1-672 F453A): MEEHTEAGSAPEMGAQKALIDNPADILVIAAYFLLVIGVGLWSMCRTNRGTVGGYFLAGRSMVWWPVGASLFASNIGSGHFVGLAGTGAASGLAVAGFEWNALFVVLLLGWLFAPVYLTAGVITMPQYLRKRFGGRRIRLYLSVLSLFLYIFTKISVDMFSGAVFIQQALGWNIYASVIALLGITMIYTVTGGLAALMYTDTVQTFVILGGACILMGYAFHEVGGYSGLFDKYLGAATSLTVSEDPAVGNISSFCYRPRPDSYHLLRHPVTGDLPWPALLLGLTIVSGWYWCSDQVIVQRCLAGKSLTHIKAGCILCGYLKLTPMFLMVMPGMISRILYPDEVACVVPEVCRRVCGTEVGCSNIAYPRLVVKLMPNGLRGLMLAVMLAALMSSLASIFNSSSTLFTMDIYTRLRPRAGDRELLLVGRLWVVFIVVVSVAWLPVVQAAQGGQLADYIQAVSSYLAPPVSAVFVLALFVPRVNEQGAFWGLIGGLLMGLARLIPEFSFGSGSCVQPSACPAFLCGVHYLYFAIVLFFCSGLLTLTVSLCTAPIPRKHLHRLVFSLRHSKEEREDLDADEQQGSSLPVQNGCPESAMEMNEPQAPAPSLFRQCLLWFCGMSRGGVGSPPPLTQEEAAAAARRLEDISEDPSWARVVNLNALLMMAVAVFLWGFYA
T1 sequence (Q13113 1-114 partner): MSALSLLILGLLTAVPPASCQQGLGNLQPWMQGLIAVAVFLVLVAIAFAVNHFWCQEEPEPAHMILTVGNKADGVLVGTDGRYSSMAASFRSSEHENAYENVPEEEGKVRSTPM
Text: hSGLT2 complementary DNA and human MAP17 cDNA were synthesized and codon-optimized for expression in human cell lines. Both cDNAs were cloned into the pcDNA3.4 vector. The hSGLT2 sequence was fused with an N-terminal signal sequence from human trypsinogen 1, a His10 tag, and sfGFP, followed by a human rhinovirus 3C protease (HRV3C protease) recognition site. Point mutations were introduced into this construct using site-directed mutagenesis. These plasmids were utilized for all experimental procedures conducted in this study.
To examine the inhibition of binding to the crude membrane, mammalian Expi293 cells were co-transfected with the hMAP17 and hSGLT2 plasmids, as described. […] The extract solution from the filter plate was diluted with water containing candesartan as an internal standard, and the SGLT2 inhibitor concentration was quantified via LC–MS/MS.
Nonspecific binding was measured using the crude membrane of nontransfected Expi293 cells. Specific binding was calculated by subtracting nonspecific binding from the binding of hSGLT2-expressing cells. Specific binding was normalized to hSGLT2 protein expression levels, measured via FSEC. The equilibrium dissociation constant (Kd) and maximum number of binding sites (Bmax) were calculated via nonlinear regression in GraphPad Prism 8.4.3. […]

Mock cells = assay: α-MG uptake in mock (empty vector) HEK293 cells; format: cell-based, human; conditions: Control (no inhibitor)
Procedure: HEK293 cells (ECACC 85120602) were maintained in Dulbecco’s modified Eagle medium (Gibco) supplemented with 10% fetal bovine serum (Thermo Scientific), 2 mM L-glutamine, 100 U ml^−1 benzylpenicillin and 100 µg ml^−1 streptomycin at 37 °C in a humidified atmosphere (5% CO2 in air). HEK293 cells were seeded at 1.0 × 10^5 cells per well in poly-L-lysine coated 24-well plates. The cells in each well were transiently transfected with 0.25 µg hMAP17 plasmid and 0.50 µg hSGLT2 plasmid using Lipofectamine 2000 (Life Technologies) and cultured for 48 h. […]
Cell lysates were deproteinized by adding acetonitrile containing candesartan as the internal standard. The α-MG concentration was quantified via liquid chromatography–tandem mass spectrometry (LC–MS/MS) using the internal standard method.
Cellular protein content was determined using a bicinchoninic acid protein assay kit (Thermo Fisher Scientific). The uptake of α-MG was expressed as the ratio of concentration in the cells (in pmol per mg protein) to concentration in the medium (in pmol μl^−1); this is known as the cell-to-medium ratio (in μl per mg protein).
In the inhibition study, the cell-to-medium ratio of cells transfected with the empty vector was used as the background. […] IC50 was calculated via nonlinear regression using GraphPad Prism 8.4.3. […]

SMILES | Canagliflozin binding (% of WT) (hSGLT2 F453A) | α-MG uptake (Mock cells)
Cc1ccc([C@@H]2O[C@H](CO)[C@@H](O)[C@H](O)[C@H]2O)cc1Cc1ccc(-c2ccc(F)cc2)s1 [Canagliflozin] | 4.952 % of WT and 11.6565 % of WT and 16.2768 % of WT | –
CO[C@H]1O[C@H](CO)[C@@H](O)[C@H](O)[C@H]1O [α-MG, α-methyl-D-glucopyranoside] | – | 1.2395 μL/mg-protein and 1.0638 μL/mg-protein and 1.0076 μL/mg-protein and 1.0525 μL/mg-protein

From PMC10803289, “Transport and inhibition mechanism of the human SGLT2–MAP17 glucose transporter” (Nature Structural & Molecular Biology, 2023)
